BindingDB's records for doi:10.1021/jm020940p (University of Innsbruck, 2002)

Legend:
[1] = The ability of compound to inhibit [35S][…] binding in guinea pig caudate stimulated by SNC80 (Opioid receptor delta 1) antagonist
[2] = The ability of compound to inhibit [35S][…] binding in guinea pig caudate stimulated by SNC80

## CCO[C@@]12Cc3c(oc4ccccc34)[C@@H]3Oc4c(O)ccc5c4[C@@]31CCN(CC1CC1)[C@@H]2C5
[1]
  Ki: 880 pM

## C=CCN1CC[C@]23c4c5ccc(O)c4O[C@H]2c2[nH]c4ccccc4c2C[C@@]3(OCC)[C@H]1C5
[2]
  Ki: 1000 pM

## CCO[C@@]12Cc3c([nH]c4ccccc34)[C@]3(C)Oc4c(O)ccc5c4C31CCN(CC1CC1)C2C5 (stereo partly drawn) [22-cyclopropylmethyl-2-ethoxy-13-methyl-(2S,13R)-14-oxa-11,22-diazaheptacyclo[13.9.1.01,13.02,21.04,12.05,10.019,25]pentacosa-4(12),5(10),6,8,15,17,19(25)-heptaen-16-ol]
[1]
  Ki: 960 pM
